The values that follow come from patent publication US10471050B2, “2-OXO-1,2-dihydropyridine-3,5-dicarboxamide compounds as bromodomain inhibitors” (GlaxoSmithKline Intellectual Property (No. 2) Limited, priority 2015, dated 2019).

Where two headings read alike, the source gives them in different places.

The experiment concerns the target T1, BRD4 BD2 (Homo sapiens, UniProt O60885, Y97A).
T1 construct: BRD4 (1-477) (Y97A) and (Y390A); made in house; host or cells: E. coli (pET15b vector)
The experiment in a line: BRD4 BD2 TR-FRET competition assay. Format: binding. As for the experimental part: Bromodomain binding was assessed utilising a time resolved fluorescent resonance energy transfer (TR-FRET) competition assay. To enable this approach a known, high affinity, pan-BET interacting small molecule was labelled with Alexa Fluor® 647, which is a far-red-fluorescent dye (Reference Compound X). Reference Compound X acts as a reporter of bromodomain binding and is the acceptor fluorophore component of the TR-FRET pair. Europium chelate, conjugated to an anti-6*His antibody, was utilised as the donor fluorophore in the TR-FRET pair. […] A TR-FRET signal is generated when the donor and acceptor fluorophores are in close proximity, between 20-80 Å, which is enabled in this assay by binding of Reference Compound X to the bromodomain protein.
In order to generate a TR-FRET signal, donor fluorophore is excited by a laser at λ337 nm, which subsequently leads to emission at λ618 nm. If the acceptor fluorophore is in close proximity then energy transfer can occur, which leads to emission of Alexa Fluor® 647 at λ665 nm. In the presence of competitor compound, Reference Compound X can be displaced from binding to the bromodomain. If displacement occurs, the acceptor fluorophore is no longer in proximity to the donor fluorophore, which prevents fluorescent energy transfer and, subsequently, a loss of Alexa Fluor® 647 emission at λ665 nm.
The competition of the compounds of formula (I) with Reference Compound X for binding to the BET family (BRD2, BRD3, BRD4 and BRDT) was assessed using protein truncates spanning both bromodomain 1 (BD1) and bromodomain 2 (BD2). In order to monitor differential binding to either BD1 or BD2, single residue mutations of key tyrosines to alanine were made in the acetyl lysine binding pockets. To validate this approach, a double residue mutant tandem domain protein was produced for each of the BET family members. Utilising a Fluorescence Polarisation approach, binding affinities for each of the single and double mutants for Reference Compound X were determined.
Final purification was completed by Superdex 200 prep grade size exclusion column. Purified protein was stored at −80° C. in 20 mM HEPES pH 7.5 and 100 mM NaCl.
All assay components were dissolved in an assay buffer composing of 50 mM HEPES pH7.4, 50 mM NaCl, 5% Glycerol, 1 mM DTT and 1 mM CHAPS. Reference Compound X was diluted, in assay buffer containing 20 nM single mutant, tandem bromodomain protein, to a concentration equivalent to 2*Kd for this bromodomain. The solution containing bromodomain and Reference Compound X was added to dose response dilutions of test compound or DMSO vehicle (a maximum of 0.5% DMSO is used in this assay) in Greiner 384 well black low volume microtitre plates and subsequently incubated for 30 minutes at room temperature. An equal volume of 3 nM of anti-6*His Europium chelate was added to all wells, followed by a further 30 minute incubation at room temperature. TR-FRET was detected using a Perkin Elmer Multimode plate reader, by exciting the donor fluorophore at λ337 nm and subsequently, after a delay of 50 μsecs, measuring emission of the donor and acceptor fluorophores at λ615 nm and λ665 nm, respectively. In order to control these assays, 16 replicates each of uninhibited (DMSO vehicle) and inhibited (10*IC50 concentrations of Example 11 of WO 2011/054846A1) TR-FRET assays were included on every microtitre plate.
cA four parameter curve fit of the following form was then applied: y=a+((b−a)/(1+(10^x/10^c)^d)
Where ‘a’ is the minimum, ‘b’ is the Hill slope, ‘c’ is the pIC50 and ‘d’ is the maximum.

Where [1] appears, read: average of N recorded values, read-out: BRD4 BD2 IC50 (average value) (converted).
Setting [2] is: single mutant tandem BRD4, read-out: pIC50 in the BRD4 BD2 assay (converted).

As for `CCCNC(=O)c1cc(C(=O)NC)c(=O)n(Cc2ccccc2)c1` [Example 2, 1-Benzyl-N^3-methyl-2-oxo-N^5-propyl-1,2-dihydropyridine-3,5-dicarboxamide], the IC50 was 0.126 µM under setting [1] and 0.1 to 1 µM under setting [2].
As to `CCCCNC(=O)c1cc(C(=O)NC)c(=O)n(Cc2ccccc2)c1` [Example 3, 1-Benzyl-N^5-butyl-N^3-methyl-2-oxo-1,2-dihydropyridine-3,5-dicarboxamide], the IC50 under setting [2] is 0.1 to 1 µM.
For `CNC(=O)CCCNC(=O)c1cc(C(=O)NC)c(=O)n(Cc2ccccc2)c1` [Example 5, 1-Benzyl-N^3-methyl-N^5-(4-(methylamino)-4-oxobutyl)-2-oxo-1,2-dihydropyridine-3,5-dicarboxamide], the IC50 under setting [2] was 0.1 to 1 µM.
For `CNC(=O)c1cc(C(=O)NCCCNC(=O)OC(C)(C)C)cn(Cc2ccccc2)c1=O` [Example 6, tert-Butyl (3-(1-benzyl-5-(methylcarbamoyl)-6-oxo-1,6-dihydropyridine-3-carboxamido)propyl)carbamate], under setting [2], the IC50 was 0.1 to 1 µM.
`CNC(=O)c1cc(C(=O)NCCC(F)(F)F)cn(Cc2ccccc2)c1=O` [Example 7, 1-Benzyl-N^3-methyl-2-oxo-N^5-(3,3,3-trifluoropropyl)-1,2-dihydropyridine-3,5-dicarboxamide]: under setting [2], the IC50 was 0.1 to 1 µM.
Same read-out and setting: the figure for `CNC(=O)c1cc(C(=O)NCCc2cnc[nH]2)cn(Cc2ccccc2)c1=O` [Example 8, N^5-(2-(1H-Imidazol-5-yl)ethyl)-1-benzyl-N^3-methyl-2-oxo-1,2-dihydropyridine-3,5-dicarboxamide] is 0.1 to 1 µM.
On the same count and under the same terms, for `CNC(=O)c1cc(C(=O)NCCCC(=O)OC)cn(Cc2ccccc2)c1=O` [Example 9, Methyl 4-(1-benzyl-5-(methylcarbamoyl)-6-oxo-1,6-dihydropyridine-3-carboxamido)butanoate] the value was 0.1 to 1 µM.
Still for that read-out and setting: for `CNC(=O)c1cc(C(=O)NCCc2ccccn2)cn(Cc2ccccc2)c1=O` [Example 10, 1-Benzyl-N^3-methyl-2-oxo-N^5-(2-(pyridin-2-yl)ethyl)-1,2-dihydropyridine-3,5-dicarboxamide] the value was 0.1 to 1 µM.
For `CNC(=O)c1cc(C(=O)NCCCc2ncc[nH]2)cn(Cc2ccccc2)c1=O` [Example 11, N^5-(3-(1H-Imidazol-2-yl)propyl)-1-benzyl-N^3-methyl-2-oxo-1,2-dihydropyridine-3,5-dicarboxamide], the IC50 was 0.0631 µM under setting [1] and no more than 0.1 µM under setting [2].
Regarding `CNC(=O)c1cc(C(=O)NCCc2cn[nH]c2)cn(Cc2ccccc2)c1=O` [Example 12, N^5-(2-(1H-Pyrazol-4-yl)ethyl)-1-benzyl-N^3-methyl-2-oxo-1,2-dihydropyridine-3,5-dicarboxamide], the IC50 under setting [2] was no more than 0.1 µM.
As to `CNC(=O)c1cc(C(=O)NCCc2cn[nH]c2)cn(Cc2cccc(C)c2)c1=O` [Example 13, N^5-(2-(1H-Pyrazol-4-yl)ethyl)-N^3-methyl-1-(3-methylbenzyl)-2-oxo-1,2-dihydropyridine-3,5-dicarboxamide], the IC50 under setting [1] is 0.1 µM and the IC50 under setting [2] was no more than 0.1 µM.
Consider `CCNC(=O)c1cc(C(=O)NC)c(=O)n(Cc2cccc(C)c2)c1` [Example 14, N^5-Ethyl-N^3-methyl-1-(3-methylbenzyl)-2-oxo-1,2-dihydropyridine-3,5-dicarboxamide], for which the IC50 under setting [2] was 0.1 to 1 µM.
Same read-out and setting: the figure for `CNC(=O)c1cc(C(=O)NCCc2cn[nH]c2)cn([C@H](C)c2ccccc2)c1=O` [Example 15, (R)-N^5-(2-(1H-Pyrazol-4-yl)ethyl)-N^3-methyl-2-oxo-1-(1-phenylethyl)-1,2-dihydropyridine-3,5-dicarboxamide] is no more than 0.1 µM; for `CCNC(=O)c1cc(C(=O)NC)c(=O)n([C@H](C)c2ccccc2)c1` [Example 16, (R)-N^5-Ethyl-N^3-methyl-2-oxo-1-(1-phenylethyl)-1,2-dihydropyridine-3,5-dicarboxamide] it is 0.1 to 1 µM.
